“And” between values parts separate entries of the source, which are not always exact repeats. Identical values can stand only once. Inconclusive results and toxic doses are left out.
Tested on: P388 leukemia ip, CD2F1 mice, survival T/C
Assay: NCI In Vivo Anticancer Drug Screen. Data for tumor model P388 Leukemia (intraperitoneal) in CD2F1 (CDF1) mice
Conditions: endpoint: median survival time, higher = longer survival
In short: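 Mice carrying the transplanted tumor received test compound or vehicle. Survival was recorded in each group, and the value is the treated-group measurement divided by that of the vehicle-treated control group.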

[1] = dose: 60.0 mg/kg/injection, schedule: Q01DX005 (ip), vehicle: saline
[2] = dose: 120.0 mg/kg/injection, schedule: Q01DX005 (ip), vehicle: saline
[3] = dose: 60.0 mg/kg/injection, schedule: Q01DX005 (ip), vehicle: Klucel (hydroxypropylcellulose) (HPC)
[4] = dose: 120.0 mg/kg/injection, schedule: Q01DX005 (ip), vehicle: Klucel (hydroxypropylcellulose) (HPC)
[5] = dose: 240.0 mg/kg/injection, schedule: Q01DX005 (ip), vehicle: Klucel (hydroxypropylcellulose) (HPC)
[6] = dose: 60.0 mg/kg/injection, schedule: Q01DX005 (ip), vehicle: saline with Tween-80
[7] = dose: 120.0 mg/kg/injection, schedule: Q01DX005 (ip), vehicle: saline with Tween-80
[8] = dose: 50.0 mg/kg/injection, schedule: Q01DX009 (ip), vehicle: Klucel (hydroxypropylcellulose) (HPC)
[9] = dose: 100.0 mg/kg/injection, schedule: Q01DX009 (ip), vehicle: Klucel (hydroxypropylcellulose) (HPC)
[10] = dose: 200.0 mg/kg/injection, schedule: Q01DX009 (ip), vehicle: Klucel (hydroxypropylcellulose) (HPC)
[11] = dose: 400.0 mg/kg/injection, schedule: Q04DX003 (ip), vehicle: saline with Tween-80
[12] = dose: 50.0 mg/kg/injection, schedule: Q01DX005 (ip), vehicle: Klucel (hydroxypropylcellulose) (HPC)
[13] = dose: 100.0 mg/kg/injection, schedule: Q01DX005 (ip), vehicle: Klucel (hydroxypropylcellulose) (HPC)
[14] = dose: 200.0 mg/kg/injection, schedule: Q01DX005 (ip), vehicle: Klucel (hydroxypropylcellulose) (HPC)
[15] = dose: 50.0 mg/kg/injection, schedule: Q01DX005 (ip), vehicle: saline with Tween-80
[16] = dose: 100.0 mg/kg/injection, schedule: Q01DX005 (ip), vehicle: saline with Tween-80
[17] = dose: 200.0 mg/kg/injection, schedule: Q01DX005 (ip), vehicle: saline with Tween-80

O=C1CCC(O)N1CN1C(=O)CCC1O (stereo unspecified)
T/C [1]: 100 % of control | T/C [2]: 108 % of control | T/C (dose: 240.0 mg/kg/injection, schedule: Q01DX005 (ip), vehicle: saline): 100 % of control

O=C1C2CCCN2C(=O)N1c1ccccc1 (stereo unspecified)
T/C [3]: 105 % of control | T/C [4]: 97 % of control | T/C [5]: 96 % of control

Clc1ncccc1-n1cccc1/C=N\N=C/c1cccn1-c1cccnc1Cl
T/C [6]: 97 % of control | T/C [7]: 89 % of control

CC(C)OCCCN(Cn1c(=S)sc2ccccc21)Cn1c(=S)sc2ccccc21
T/C [8]: 91 % of control | T/C [9]: 89 % of control | T/C [10]: 87 % of control

COc1ccc(CC2C(=O)OC(=O)C2Cc2ccc(OC)c(OC)c2)cc1OC (stereo unspecified)
T/C (dose: 100.0 mg/kg/injection, schedule: Q04DX003 (ip), vehicle: saline with Tween-80): 100 % of control | T/C (dose: 200.0 mg/kg/injection, schedule: Q04DX003 (ip), vehicle: saline with Tween-80): 90 % of control | T/C [11]: 100 % of control

CSC1=NN(C)C2(CCCCC2)C(=O)N1
T/C [8]: 115 % of control | T/C [9]: 96 % of control | T/C [10]: 118 % of control

c1ccc(-c2nc3cc4ccccc4cc3nc2-c2ccccc2)cc1
T/C [12]: 105 % of control | T/C [13]: 100 % of control | T/C [14]: 99 % of control

CCCCCCC(C(=O)OCC)P(=O)(OCC)OCC (stereo unspecified)
T/C (dose: 18.75 mg/kg/injection, schedule: Q01DX009 (ip), vehicle: saline sonified): 90 % of control | T/C (dose: 37.5 mg/kg/injection, schedule: Q01DX009 (ip), vehicle: saline sonified): 95 % of control | T/C (dose: 75.0 mg/kg/injection, schedule: Q01DX009 (ip), vehicle: saline sonified): 100 % of control

CCOC(=O)c1cc(-c2ccccc2)c(OC)c(=O)nc1-c1ccccc1
T/C (dose: 25.0 mg/kg/injection, schedule: Q01DX005 (ip), vehicle: saline with Tween-80): 100 % of control | T/C [15]: 100 % of control | T/C [16]: 100 % of control | T/C [17]: 112 % of control

O=C1c2ccccc2C(=O)C1(c1ccccn1)[N+](=O)[O-]
T/C [6]: 110 % of control | T/C [7]: 113 % of control

OC1=CC(=S)NC2CCCCC12 (stereo unspecified)
T/C [12]: 86 % of control | T/C [13]: 102 % of control | T/C [14]: 102 % of control

COc1c2ccc(-c3ccccc3)oc-2cc(=O)c1C
T/C (dose: 2.0 mg/kg/injection, schedule: Q01DX005 (ip), vehicle: Klucel + Tween-80): 100 % of control | T/C (dose: 4.0 mg/kg/injection, schedule: Q01DX005 (ip), vehicle: Klucel + Tween-80): 100 % of control | T/C (dose: 8.0 mg/kg/injection, schedule: Q01DX005 (ip), vehicle: Klucel + Tween-80): 109 % of control | T/C (dose: 16.0 mg/kg/injection, schedule: Q01DX005 (ip), vehicle: Klucel + Tween-80): 92 % of control

NNC(=O)C(=O)N/N=C(/CC1(O)C(=O)Nc2ccccc21)c1ccc([N+](=O)[O-])cc1 (stereo unspecified)
T/C [15]: 103 % of control | T/C [16]: 94 % of control | T/C [17]: 90 % of control

C[C@]12CC[C@H](O)C[C@@H]1CC[C@@H]1[C@@H]2C(=O)C[C@@]2(C)[C@H]1CC[C@]2(O)C(=O)CBr
T/C (dose: 264.0 mg/kg/injection, schedule: Q04DX003 (ip), vehicle: saline with Tween-80): 109 % of control | T/C [11]: 100 % of control | T/C (dose: 600.0 mg/kg/injection, schedule: Q04DX003 (ip), vehicle: saline with Tween-80): 95 % of control

Cn1c2c(c(=O)n(C)c1=O)CS(=O)c1ccccc1N2 (stereo unspecified)
T/C (dose: 25.0 mg/kg/injection, schedule: Q01DX005 (ip), vehicle: suspension in saline): 103 % of control | T/C (dose: 50.0 mg/kg/injection, schedule: Q01DX005 (ip), vehicle: suspension in saline): 96 % of control | T/C (dose: 100.0 mg/kg/injection, schedule: Q01DX005 (ip), vehicle: suspension in saline): 96 % of control | T/C (dose: 200.0 mg/kg/injection, schedule: Q01DX005 (ip), vehicle: suspension in saline): 97 % of control

CCCN1C(=O)CC(=O)N(CCC)P1(=O)OCC
T/C (dose: 100.0 mg/kg/injection, schedule: Q04DX002 (ip), vehicle: saline): 101 % of control | T/C (dose: 200.0 mg/kg/injection, schedule: Q04DX002 (ip), vehicle: saline): 108 % of control | T/C (dose: 400.0 mg/kg/injection, schedule: Q04DX002 (ip), vehicle: saline): 101 % of control

CC(C)=C(C#C[Si](C)(C)C)OS(=O)(=O)C(F)(F)F
T/C [15]: 100 % of control | T/C [16]: 101 % of control | T/C [17]: 101 % of control

COc1ccc(C(c2c(O)c3ccccc3oc2=O)c2c(O)c3ccccc3oc2=O)c(OC)c1
T/C [6]: 106 % of control | T/C [7]: 98 % of control | T/C (dose: 240.0 mg/kg/injection, schedule: Q01DX005 (ip), vehicle: saline with Tween-80): 94 % of control

Cn1c(N)c(N=O)c(=O)n(C)c1=O
T/C (dose: 90.0 mg/kg/injection, schedule: Q01DX009 (ip), vehicle: saline with Tween-80): 90 % of control | T/C (dose: 180.0 mg/kg/injection, schedule: Q01DX009 (ip), vehicle: saline with Tween-80): 95 % of control | T/C (dose: 360.0 mg/kg/injection, schedule: Q01DX009 (ip), vehicle: saline with Tween-80): 95 % of control

COc1ccc(C2=CC(OO)(C(C)(C)C)C(=O)C(C(C)(C)C)=C2)cc1.Oc1ccccc1C=NCCC[N-]CCCN=Cc1ccccc1O.[Co] (stereo unspecified)
T/C [8]: 101 % of control | T/C [9]: 101 % of control | T/C [10]: 100 % of control

O=C1CN(CCCO)CC(=O)N2Cc3ccccc3CN12
T/C (dose: 50.0 mg/kg/injection, schedule: Q01DX005 (ip), vehicle: saline): 94 % of control | T/C (dose: 100.0 mg/kg/injection, schedule: Q01DX005 (ip), vehicle: saline): 100 % of control | T/C (dose: 200.0 mg/kg/injection, schedule: Q01DX005 (ip), vehicle: saline): 99 % of control

CCOC(=O)c1ccc(NC(CCN2CCN(CCC(=NC(C)(C)C)Nc3ccc(C(=O)OCC)cc3)CC2)=NC(C)(C)C)cc1
T/C [8]: 96 % of control | T/C [9]: 92 % of control | T/C [10]: 90 % of control

C/C(=N\NC(=S)N1CCN(c2ccccn2)CC1)c1ncccn1
T/C (dose: 3.13 mg/kg/injection, schedule: Q01DX005 (ip), vehicle: saline with Tween-80): 115 % of control | T/C (dose: 6.25 mg/kg/injection, schedule: Q01DX005 (ip), vehicle: saline with Tween-80): 122 % of control and 123 % of control | T/C (dose: 12.5 mg/kg/injection, schedule: Q01DX005 (ip), vehicle: saline with Tween-80): 95 % of control

O=[N+]([O-])c1ccc(S(=O)(=O)C/C=C/CCl)c([N+](=O)[O-])c1
T/C (dose: 12.5 mg/kg/injection, schedule: Q01DX009 (ip), vehicle: saline with Tween-80): 113 % of control | T/C (dose: 25.0 mg/kg/injection, schedule: Q01DX009 (ip), vehicle: saline with Tween-80): 90 % of control

COc1cc(C)ccc1C1=NC(C)(c2ccc(C)cc2OC)NC1=S (stereo unspecified)
T/C (dose: 37.5 mg/kg/injection, schedule: Q01DX009 (ip), vehicle: Klucel (hydroxypropylcellulose) (HPC)): 124 % of control | T/C (dose: 75.0 mg/kg/injection, schedule: Q01DX009 (ip), vehicle: Klucel (hydroxypropylcellulose) (HPC)): 120 % of control

O=C1C=C(C2=C(O)c3ccccc3C2=O)c2ccccc21 (tested in a mixture with another compound)
T/C [8]: 105 % of control | T/C [9]: 105 % of control

CC(C)CNCC(=O)Nc1ccc(Cc2ccc(NC(=O)CNCC(C)C)cc2)cc1
T/C [15]: 102 % of control | T/C [16]: 97 % of control

O=[N+]([O-])c1ccc(Nc2cn[nH]n2)cc1
T/C [3]: 100 % of control | T/C [4]: 102 % of control | T/C [5]: 99 % of control

CCCCOC(=O)C1C2CCC(O2)C1C(N)=O (stereo unspecified)
T/C [6]: 99 % of control | T/C [7]: 100 % of control

COC1/C=C/OC2(C)Oc3c(C)c(O)c4c(O)c(c5c(nc(-c6ccco6)n5-c5ccccc5)c4c3C2=O)NC(=O)/C(C)=C\C=C\C(C)C(O)C(C)C(O)C(C)C(OC(C)=O)C1C (stereo unspecified)
T/C (dose: 25.0 mg/kg/injection, schedule: Q01DX009 (ip), vehicle: Klucel (hydroxypropylcellulose) (HPC)): 89 % of control | T/C [8]: 95 % of control | T/C [9]: 95 % of control | T/C [10]: 93 % of control

CCOC(=O)C[N+](C)(C)C(C#N)C(C)c1ccccc1 (stereo unspecified)
T/C [1]: 95 % of control | T/C [2]: 95 % of control

C=C(C#N)C1OC2OC(C)(C)OC2C1OC (stereo unspecified)
T/C [15]: 107 % of control | T/C [16]: 118 % of control

— PubChem BioAssay AID330 (DTP/NCI, 2004)
